Assay results from patent US10655163B2, “Methods, kits, and systems for multiplexed detection of target molecules and uses thereof” (THE GENERAL HOSPITAL CORPORATION, priority 2013, dated 2020).
Entries after “also recorded” stand apart in the source; their conditions may differ.

Key:
[1] = system: four human cancer cell lines; experiment: Proteomic profiling of olaparib and cisplatin treatments; type: cell-based; settings: FIGS. 15C-15D
Experimental: Proteomic profiling of olaparib and cisplatin treatments was performed for four human cancer cell lines, showing varying drug sensitivities as measured by viability assays (FIGS. 14A-14B and FIG. 15A).
Drug treatments of cell lines. To test the effect of drug treatment on protein expression levels, the cell lines were treated with a number of different chemotherapeutic or molecularly targeted drugs. […] DNA-damaging agents olaparib and cisplatin were applied to cells for 3 days. Changes in protein expression levels were compared to medium controls under identical conditions but without drug treatment.
Data analysis: calculating proteomic expression profiles. Protein expression profiles were extracted from raw data as follows. First, raw DNA counts were normalized via the mean of the internal NanoString positive controls, which account for hybridization efficiency. […]
Correlation between single-cell analysis and bulk measurement was calculated in GraphPad Prism. Spearman r values were calculated without assuming a normal, consistent distribution. Two-sided P values were calculated, where significant markers were identified by comparing two groups (for example, treated versus untreated) in Prism and performing pairwise t tests with an FDR of 0.2 for multiple test correction error. […] Class separability was measured by the Bhattacharya distance.

[2] = system: HT1080 fibrosarcoma cell lines; experiment: Taxol dose response screen in HT1080 cells, ABCD protein marker profiling; type: cell-based, human; settings: different doses of taxol
Source text: Having established feasibility of inter- and intrapatient analyses in clinical samples, it was next sought to explore the feasibility of monitoring cancer treatment over time. To this end, it was first sought to determine if known pathway responses to different drug treatments could be discriminated. […]. […] Notable examples include pS6RP for targeted treatments, and pH2A.X, pATM/ATR (phospho-ataxia telangiectasia mutated/ATM- and Rad3-related) substrate, and cleaved PARP for DNA-damaging agents. Unexpected results, such as epigenetic histone modifications after treatment with a phosphatidylinositol 3-kinase inhibitor (PI3Ki) was also found (FIG. 15E). For additional in vitro validation of treatment, HT1080 fibrosarcoma cell lines were treated with four different doses of taxol.
To evaluate the assay's ability to measure even small marker changes, HT1080 human fibrosarcoma cells were treated with taxol at […] different doses. Marker changes at high doses were compared to marker changes quantified by an independent immunofluorescence screen (FIG. 16A). […] These in vitro studies established that the marker panel could indeed measure pathway changes in response to varying drug mechanisms; furthermore, these changes could be detected in a sensitive, dose-dependent manner.
Immunofluorescence. […]

SMILES | changes in DNA damage and apoptosis markers [1] | protein marker changes in response to taxol treatment [2]
N.N.[Cl][Pt][Cl] [cisplatin] | degradation of Bim and up-regulation of pERK | 
CC(=O)O[C@H]1C(=O)[C@@]2(C)[C@H]([C@H](OC(=O)c3ccccc3)[C@]3(O)C[C@H](OC(=O)[C@H](O)[C@@H](NC(=O)c4ccccc4)c4ccccc4)C(C)=C1C3(C)C)[C@]1(OC(C)=O)CO[C@@H]1C[C@@H]2O [taxol, paclitaxel] |  | dose-response changes; also recorded: dose-response curves
